Reference: patent publication US9737493B2, “Compositions and methods for modulating DNMT1 inhibitor activity” (University of Louisville Research Foundation, Inc., priority 2012, dated 2017)

Assays:
[1] = system: A549 cells; experiment: GSH-Glo reduced glutathione content assay; type: cell-based, human; details: A549, 2 μM XB05, 24 h
Experimental: (§1) FIG. 8: XB05 Modulates Cellular Stress Responses. (A) A luminescence-based assay for reduced glutathione (GSH) content in cells treated 24 h with XB05 (1 μM for U937 and Hs27, or 2 μM for A549), in the absence or presence of 5 mM GSH. Some cells were treated with buthionine sulfoximine (BSO, 200 μM) plus diethyl maleate (DEM, 1 mM) for 3 h as a positive control for GSH depletion. Bar graph indicates mean+/−SEM from three independent experiments. […] (C) Western blot for Nrf2 in nuclear extracts from cells treated as in part A for either 8 h or 24 h. Membranes were stripped and reprobed for Ku-70 as a loading control. (D) Western blot for phospho-eIF2α (Ser51), total eIF2-α, BiP/Grp78, and GAPDH (loading control) in whole cell extracts from cell lines treated as indicated for 24 h with concentrations of XB05 described in part A. Thapsigargin (TG, 2 μM) was used as a positive control for induction of endoplasmic reticulum (ER) stress.
(§2) Reduced Glutathione Content Analyses. After treatment as indicated in the figures and in the Brief Description of the Drawings, cells were harvested as described, counted and dispensed at a density of 10,000 cells/well in triplicate on a 96-well white, opaque bioluminescence plate (Corning). Cellular content of reduced glutathione (GSH) was analyzed using the GSH-Glo® Glutathione Assay Kit (Promega) according to the manufacturer's instructions. The chemiluminescent signal was quantified on a Biotek Synergy HT plate-reader (Biotek, Winooski, Vt.) using an integration time of 1 s/well.

[2] = system: Hs27 cells; experiment: GSH-Glo reduced glutathione content assay; type: cell-based, human; details: Hs27, 1 μM XB05, 24 h
Experimental: as §1, §2

[3] = system: U937 cells; experiment: GSH-Glo reduced glutathione content assay; type: cell-based, human; details: U937, 1 μM XB05, 24 h
Experimental: as §1, §2

[4] = system: A549 cells; experiment: DNA content (PI) cell cycle analysis; type: cell-based, human
Experimental: (§3) FIG. 6: DNA Content Analysis for Malignant Cells treated with XB05. (A) U937 and A549 cells were treated with XB05 at the concentrations indicated for 24, 48 and 72 h. At each time point, the cells were harvested and subjected to propidium iodide (PI) staining for DNA content analysis as described in Methods. (B) Tables showing percentage of cycling cells (non-SubG1) in various phases of the cell cycle after treatment with vehicle or XB05 as indicated in FIG. 6A.
(§4) Flow Cytometric Assays. Analyses were performed using a FACScalibur flow cytometer (BD Biosciences, Mountain View, Calif.) and FlowJo software (Tree Star, Inc., Ashland, Oreg.). Cells were treated as indicated in the figures and in the Brief Description of the Drawings. Cells were harvested by using TrypLE Cell Dissociation Reagent (Life Technologies). For cell death analyses, cells (adherent and detached cells) were stained with annexin-V-FITC and propidium iodide (PI) using the Apoptosis Detection Kit (BD Biosciences, San Jose, Calif.), according to the manufacturer's instructions. For cell-cycle distribution, cells were fixed, and stained with PI using the Cycle Test Plus kit (Becton Dickinson, Franklin Lakes, N.J.). […] Cells were then washed twice with PBS, re-suspended at a density of 1×10^6 cells/mL in PBS and analyzed by flow cytometry.

[5] = system: U937 cells; experiment: DNA content (PI) cell cycle analysis; type: cell-based, human; details: U937, 24 h
Experimental: as §3, §4

[6] = DTNB assay for free sulfhydryls; details: 5 mM XB05; 0.25 mM Cys or GSH, pH 8, 30 min, 37° C.
Experimental: FIG. 12: XB05 is Weakly Reactive with Thiols In Vitro: 0.25 mM Cysteine (Cys, top panel) or glutathione (GSH, bottom panel) were incubated with XB05, diethyl maleate (DEM), or maleimide at the indicated concentrations, or with an equivalent amount of vehicle (DMSO), for 30 min at 37° C. 5,5′-Dithiobis-2-nitrobenzoic acid (DTNB) assays were conducted as described in Methods. Absorbance for triplicate wells was determined at 412 nm. Points represent the mean and standard deviation for triplicate wells. Data shown are representative of two independent experiments.
Dithiobis-2-nitrobenzoic Acid (DTNB) Assay for Free Sulfhydryls. For each experiment, a 20× working solution of DTNB (2 mM DTNB, 50 mM sodium acetate in 100 mM Tris-HCl, pH 8.0) and 2× solutions of cysteine and GSH (0.5 mM in 100 mM Tris-HCl, pH 8.0) were freshly prepared. 10 mM stock solutions of XB05, diethyl maleate and maleimide were prepared in 100% DMSO, and subsequently serially diluted to 2× working solutions in 100 mM Tris-HCl, pH 8.0. 100 μl each of thiol compounds (final concentration 0.25 mM) and thiol-reactive compounds (final concentrations 0.05-5 mM) or vehicle control (DMSO) were added in duplicate to a 96-well plate and allowed to incubate at 37° C. for 30 minutes. […] Absorbance was read on a Biotek HT Synergy Plate reader (Winooski, Vt.) at 412 nm.

CCCCCC(O)C#CC(F)(F)Br (stereo not drawn) [XB05]
increase in GSH [1]: approximately 1.3 fold
increase in GSH [2]: ~2 fold
change in reduced GSH [3]: depletion of reduced GSH
proportion of cells in G2/M phase [4]: very modest increase in the G2/M fraction
proportion of cells in G2/M phase [5]: pronounced increase in the proportion of cells in G2/M phase
depletion of free thiols [6]: 40-50%
